Test results from patent publication US20260256925A1, “INDAZOLE DERIVATIVES AS ESTROGEN RECEPTOR DEGRADERS” (REGENTS OF THE UNIVERSITY OF MICHIGAN, priority 2022, published 2026).

Experiments:
ERα_LBD (GST) = molecular target: T1, ERα_LBD (GST) (Homo sapiens, UniProt P03372); experiment: IC50 measurements for binding to ERα_LBD (GST), LanthaScreen TR-FRET ERα competitive binding assay; settings: Fluormone ES2 Green tracer, 60 min, read-out: ERα HTRF IC50
T1 construct: ERα_LBD (GST) protein: 4 nM; purchased ThermoFisher A15887
T1 sequence (P03372 311-547 limits assumed): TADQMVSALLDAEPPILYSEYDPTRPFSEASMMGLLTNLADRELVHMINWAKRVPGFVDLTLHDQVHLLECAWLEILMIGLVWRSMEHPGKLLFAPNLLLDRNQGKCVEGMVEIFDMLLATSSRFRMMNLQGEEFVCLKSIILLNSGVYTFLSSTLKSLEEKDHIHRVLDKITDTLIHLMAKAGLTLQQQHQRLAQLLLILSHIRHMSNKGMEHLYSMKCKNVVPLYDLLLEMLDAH
Method: In vitro Assay: IC50 Measurements for binding to ERα_LBD (GST)·
Final assay conditions: • 1. ERα_LBD (GST) protein: 4 nM • 2. Tb Anti-GST: 2 nM • 3. Fluormone ES2 Green tracer: 3 nM • 4. Incubation time: 60 min • 5. DMSO: 1% • 6. Assay buffer: Adding 1M DTT to Nuclear receptor Buffer K for final 5 mM DTT. • 7. ZPE: 1% DMSO • 8. HPE: 1 μM ARV_471 • 9. LanthaScreen® TR-FRET ERα Competitive Binding Assay (ThermoFisher, #A^15887)
100× Compound preparation: • 1) Cherry pick 2 μL 10 mM compound stock to column 1 of a 384 intermediate plate • 2) Add 18 μL DMSO to column 1 to dilute compound to 1 mM. • 3) Transfer 10 μL 1 mM compound to column 1 of a LDV plate. • 2) Add 6 μl DMSO to column 2-10 of the LDV plate. • 3) Compounds undergo 3-fold serial dilution (3 μL+6 μL) in DMSO. • 4) Transfer 120 nL compound solution to assay plate.
Prepare complete nuclear receptor buffer K by adding 1 M DTT to nuclear receptor buffer K for a final concentration of 5 mM DTT. Complete nuclear receptor buffer K must be prepared fresh daily. Prepare 2× protein solution using complete nuclear receptor buffer K containing 8 nM ERα_LBD (GST) and 4 nM Tb Anti-GST. Then, prepare 2× Fluormone ES2 Green tracer (6 nM) using complete nuclear receptor buffer K. Add 6 μL 2× Fluormone ES2 green tracer into a compound plate (PerkinElmer 6008289) by dragonfly with one-tips-addition. Subsequently, add 6 μL 2× protein solution into the plate. Briefly and gently mix the 384-well plate on a plate shaker and incubate at room temperature protected from light for 60 min. The plate is sealed with a cover to minimize evaporation. Read the plate at wavelengths of 520 nm and 495 nm. Calculate the TR-FRET ratio by dividing the emission signal at 520 nm by the emission signal at 495 nm. Generate a binding curve by plotting the emission ratio vs. the log [ligand]. To determine the IC50 value, fit the data using XL-fit for a sigmoidal dose-response.

ER [1] = molecular target: T2, ER (Homo sapiens, UniProt P03372); experiment: In-cell Western (ICW) ER degradation assay in MCF-7 cells; assay type: cell-based; settings: for Dmax: MCF7, read-out: ER MCF7 ICW Dmax (%); for DC50: MCF-7 cells, 16 hrs, read-out: ER MCF7 ICW DC50
T2 construct: endogenous in cells; probably T47D or MCF-7
T2 sequence (P03372 1-595): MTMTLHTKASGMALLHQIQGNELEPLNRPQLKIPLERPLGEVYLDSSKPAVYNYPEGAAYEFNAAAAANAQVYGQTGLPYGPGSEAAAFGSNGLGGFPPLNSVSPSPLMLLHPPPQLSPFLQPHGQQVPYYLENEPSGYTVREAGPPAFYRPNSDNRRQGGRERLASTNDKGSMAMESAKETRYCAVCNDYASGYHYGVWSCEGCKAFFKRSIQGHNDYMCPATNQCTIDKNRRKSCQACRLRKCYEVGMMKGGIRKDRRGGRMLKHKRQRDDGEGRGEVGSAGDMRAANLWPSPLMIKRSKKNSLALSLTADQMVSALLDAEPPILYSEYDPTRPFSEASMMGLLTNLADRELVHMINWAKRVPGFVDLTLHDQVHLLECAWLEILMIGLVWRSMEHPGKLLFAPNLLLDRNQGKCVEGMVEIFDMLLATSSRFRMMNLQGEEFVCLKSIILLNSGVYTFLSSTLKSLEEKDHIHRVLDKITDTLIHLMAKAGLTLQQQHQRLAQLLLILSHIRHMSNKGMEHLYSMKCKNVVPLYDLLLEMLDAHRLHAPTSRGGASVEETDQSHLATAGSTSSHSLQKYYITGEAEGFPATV

ER [2] = molecular target: T2, ER; experiment: In-cell Western (ICW) ER degradation assay in T47D cells; assay type: cell-based; settings: for Dmax: T47D, read-out: ER T47D ICW Dmax (%)
MCF-7 cells = experiment: CellTiter-Glo (CTG) cell proliferation assay in MCF-7 cells; assay type: cell-based; settings: Homo sapiens, MCF7, 144 h, Day 6
Description: (§1) CellTiter-Glo® (CTG) assays in MCF-7 and T47D cell lines.
(§2) In vitro Assay: MCF-7 and T47D CTG assay

T47D cells = experiment: CellTiter-Glo (CTG) cell proliferation assay in T47D cells; assay type: cell-based; settings: Homo sapiens, 144 h, Day 6
Description: as §1, §2

C[C@@H]1Cc2c(ccc3[nH]ncc23)[C@@H](c2ccc(N3CCC(CN4CCN5c6cc7c(cc6OC[C@@H]5C4)C(=O)N([C@H]4CCC(=O)NC4=O)C7)CC3)nc2)N1CC(F)(F)F [Compound A24, (S)-3-((S)-3-((1-(5-((6S,8R)-8-methyl-7-(2,2,2-trifluoroethyl)-6,7,8,9-tetrahydro-3H-pyrazolo[4,3-f]isoquinolin-6-yl)pyridin-2-yl)piperidin-4-yl)methyl)-8-oxo-1,2,3,4,4a,5,8,10-octahydro-9H-pyrazino[1′,2′: 4,5][1,4]oxazino[2,3-f]isoindol-9-yl)piperidine-2,6-dione]
IC50 (ERα_LBD (GST)): < 10 nM | Dmax (ER [1]): 50 to 75% | DC50 (ER [1]): < 1 nM | DC50 (ER [2]; T47D cells, 16 hrs): < 1 nM | Dmax (ER [2]): > 75% | IC50 (MCF-7 cells): > 50 nM | IC50 (T47D cells): > 50 nM

C[C@@H]1Cc2c(ccc3[nH]ncc23)[C@H](c2ccc(N3CCC(CN4CCN5c6ccc7c(c6OC[C@H]5C4)CN([C@H]4CCC(=O)NC4=O)C7=O)CC3)nc2)N1CC(F)(F)F [Compound A19, (S)-3-((R)-7-((1-(5-((6R,8R)-8-methyl-7-(2,2,2-trifluoroethyl)-6,7,8,9-tetrahydro-3H-pyrazolo[4,3-f]isoquinolin-6-yl)pyridin-2-yl)piperidin-4-yl)methyl)-1-oxo-1,3,5,5a,6,7,8,9-octahydro-2H-pyrazino[1′,2′: 4,5][1,4]oxazino[2,3-e]isoindol-2-yl)piperidine-2,6-dione]
IC50 (ERα_LBD (GST)): < 10 nM | Dmax (ER [1]): 50 to 75% | DC50 (ER [1]): < 1 nM | DC50 (ER [2]; T47D cells, 16 hrs): < 1 nM | Dmax (ER [2]; T47D cells, 16 hrs): 50 to 75% | IC50 (MCF-7 cells): < 10 nM | IC50 (T47D cells): < 10 nM

C[C@@H]1Cc2c(ccc3[nH]ncc23)C(c2ccc(N3CCC4(CC3)CC(CN3CCN5c6ccc7c(c6OC[C@H]5C3)CN([C@H]3CCC(=O)NC3=O)C7=O)C4)nc2)N1CC(F)(F)F (stereo in doubt) [Compound A26, (S)-3-((R)-7-((7-(5-((6R,8R)-8-methyl-7-(2,2,2-trifluoroethyl)-6,7,8,9-tetrahydro-3H-pyrazolo[4,3-f]isoquinolin-6-yl)pyridin-2-yl)-7-azaspiro[3.5]nonan-2-yl)methyl)-1-oxo-1,3,5,5a,6,7,8,9-octahydro-2H-pyrazino[1′,2′: 4,5][1,4]oxazino[2,3-e]isoindol-2-yl)piperidine-2,6-dione]
IC50 (ERα_LBD (GST)): < 10 nM | Dmax (ER [1]): > 75% | DC50 (ER [1]): < 1 nM | DC50 (ER [2]; T47D cells, 16 hrs): < 1 nM | Dmax (ER [2]; T47D cells, 16 hrs): > 75% | IC50 (MCF-7 cells): 10 to 50 nM | IC50 (T47D cells): 10 to 50 nM

C[C@@H]1Cc2c(ccc3[nH]ncc23)[C@@H](c2ccc(N3CC4(CCC(CN5CCN6c7ccc8c(c7OC[C@H]6C5)CN([C@H]5CCC(=O)NC5=O)C8=O)CC4)C3)nc2)N1CC(F)(F)F [Compound A17, (S)-3-((R)-7-((2-(5-((6S,8R)-8-methyl-7-(2,2,2-trifluoroethyl)-6,7,8,9-tetrahydro-3H-pyrazolo[4,3-f]isoquinolin-6-yl)pyridin-2-yl)-2-azaspiro[3.5]nonan-7-yl)methyl)-1-oxo-1,3,5,5a,6,7,8,9-octahydro-2H-pyrazino[1′,2′: 4,5][1,4]oxazino[2,3-e]isoindol-2-yl)piperidine-2,6-dione]
IC50 (ERα_LBD (GST)): < 10 nM | Dmax (ER [1]): > 75% | DC50 (ER [1]): < 1 nM | DC50 (ER [2]; T47D cells, 16 hrs): < 1 nM | Dmax (ER [2]; T47D cells, 16 hrs): > 75% | IC50 (MCF-7 cells): > 50 nM | IC50 (T47D cells): 10 to 50 nM
